This passage reports Ki results from patent publication US6369077B1, “Protease inhibitors” (SmithKline Beecham Corporation, priority 1997, dated 2002).

SMILES strings stand for the structures.

This assay has as its target T1, cathepsin K (Homo sapiens, UniProt P43235).
T1 sequence (P43235 115-329): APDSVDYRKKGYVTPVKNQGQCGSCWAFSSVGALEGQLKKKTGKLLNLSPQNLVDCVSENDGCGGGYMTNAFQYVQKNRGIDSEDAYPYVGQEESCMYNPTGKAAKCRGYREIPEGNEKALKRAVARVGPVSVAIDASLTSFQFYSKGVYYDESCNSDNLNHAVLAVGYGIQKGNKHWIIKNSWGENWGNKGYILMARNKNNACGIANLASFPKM
In words: Cathepsin K inhibition studies (progress curve method, fluorogenic peptide substrate). The assay is classed as biochemical. Conditions: human recombinant enzyme; substrate typically Cbz-Phe-Arg-AMC; 100 mM Na acetate pH 5.5, 20 mM cysteine, 5 mM EDTA, 10% DMSO. The procedure: Determination of Cathepsin K Proteolytic Catalytic Activity
All assays for cathepsin K were carried out with human recombinant enzyme. Standard assay conditions for the determination of kinetic constants used a fluorogenic peptide substrate, typically Cbz-Phe-Arg-AMC, and were determined in 100 mM Na acetate at pH 5.5 containing 20 mM cysteine and 5 mM EDTA. Stock substrate solutions were prepared at concentrations of 10 or 20 mM in DMSO with 20 uM final substrate concentration in the assays. All assays contained 10% DMSO. […] All assays were conducted at ambient temperature. Product fluorescence (excitation at 360 nm; emission at 460 nm) was monitored with a Perceptive Biosystems Cytofluor II fluorescent plate reader. […]
Potential inhibitors were evaluated using the progress curve method. […] For those compounds whose progress curves were linear, apparent inhibition constants (Ki,app) were calculated according to equation 1 (Brandt et al., Biochemitsry, 1989, 28, 140): […]
[AMC]=vsst+(v0−vss)[1−exp(−kobst)]/kobs (2) where [AMC] is the concentration of product formed over time t, v0 is the initial reaction velocity and vss is the final steady state rate. Values for kobs were then analyzed as a linear function of inhibitor concentration to generate an apparent second order rate constant (kobs/inhibitor concentration or kobs/[I]) describing the time-dependent inhibition. […]

Take `CC(C)C[C@H](NS(=O)(=O)c1cccc2cccnc12)C(=O)NC1COCC1=O` (stereo partly drawn) [4-(R,S)-Amino-N-[(8-quinolinesulfonyl)-S-leucine]-3-tetrahydrofuran-3-one]: the Ki is over 10 µM.

The Ki is a dissociation constant, usually derived from enzyme kinetics or from competition with a known ligand.
